Data reported in PubChem BioAssay (NCI).
Values joined by “and” are separate entries in the source; they are usually repeats but may differ in a detail not shown here. Equal entries are not always repeated.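 Briefly, cells in 96-well plates were exposed to five compound concentrations for 48 h, and endpoints were estimated by linear interpolation. The concentration for 50% growth inhibition is given as GI50. TGI denotes the concentration required for complete inhibition of growth.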

Experiments:
Assay in all cases: NCI anticancer screen, dose series, 48 h
UACC-62 melanoma = tested on: UACC-62 melanoma
MDA-MB-231 breast = tested on: MDA-MB-231 breast
OVCAR-4 ovarian = tested on: OVCAR-4 ovarian
A549 NSCLC = tested on: A549 NSCLC
TK-10 renal = tested on: TK-10 renal
MALME-3M melanoma = tested on: MALME-3M melanoma
SF-295 CNS = tested on: SF-295 CNS
EKVX NSCLC = tested on: EKVX NSCLC

Structure (SMILES)	GI50 (UACC-62 melanoma)	TGI (UACC-62 melanoma)	GI50 (MDA-MB-231 breast)	TGI (MDA-MB-231 breast)	GI50 (OVCAR-4 ovarian)	TGI (OVCAR-4 ovarian)	GI50 (A549 NSCLC)	TGI (A549 NSCLC)	GI50 (TK-10 renal)	TGI (TK-10 renal)	GI50 (MALME-3M melanoma)	TGI (MALME-3M melanoma)	GI50 (SF-295 CNS)	TGI (SF-295 CNS)	GI50 (EKVX NSCLC)	TGI (EKVX NSCLC)
C[C@@]1(C(=O)O)CCC[C@]2(C)C1CC[C@@]13C[C@@](O)(CC[C@]12O)[C@@]1(CO1)C3 (some centres not stated)	> 100 µM	> 100 µM	> 100 µM	> 100 µM	> 100 µM	> 100 µM	> 100 µM	> 100 µM	> 100 µM	> 100 µM	> 100 µM	> 100 µM	> 100 µM	> 100 µM	> 100 µM	> 100 µM
CC1=CC(C)=NN=C(N)N1S(=O)(=O)c1cc(C)c(Cl)cc1SCc1ccccc1	12.4 µM	> 100 µM	> 100 µM	> 100 µM	11.5 µM	> 100 µM	31.3 µM	> 100 µM	> 100 µM	> 100 µM	49.1 µM	> 100 µM	34.3 µM	> 100 µM	6.08 µM	> 100 µM
COC1C(O)CC(OC2CC(OC3CC(O[C@@H]4C(=O)c5c(cc6cc(OC7CC(OC8CC(O)C(O)C(C)O8)C(O)C(C)O7)c(C)c(O)c6c5O)CC4[C@H](OC)C(=O)O)OC(C)C3O)OC(C)C2O)OC1C (some centres not stated)	0.842 µM	2.54 µM	4.43 µM	> 33.3 µM	4.9 µM	> 33.3 µM	1.66 µM	> 33.3 µM	4.56 µM	> 33.3 µM	2.37 µM	28.6 µM	0.97 µM	> 33.3 µM	2.31 µM	> 33.3 µM
Cn1c(=O)c(Oc2ccc(F)cc2F)cc2cnc(NC(C)(C)CO)nc21	> 25 µM	> 25 µM	> 25 µM	> 25 µM	> 25 µM	> 25 µM	> 25 µM	> 25 µM	> 25 µM	> 25 µM	> 25 µM	> 25 µM	> 25 µM	> 25 µM		
COc1cc(Oc2c(C)c(Cl)c(OC)c(Cl)c2OC)c2c(c1Cl)COC2=O		> 100 µM		> 100 µM		> 100 µM		> 100 µM		> 100 µM		> 100 µM		> 100 µM		> 100 µM
Oc1ccc(Nc2ccc3ccccc3c2)cc1	3.96 µM	18 µM	4.06 µM	27.8 µM	8.64 µM	> 100 µM	4.84 µM	27 µM	4.22 µM	42.3 µM	3.45 µM	13.4 µM	2.13 µM	6.29 µM	3.66 µM	20.5 µM
O=C1C(=C(C(F)(F)Cl)C(F)(F)Cl)C2CCC1C2 (configuration not stated)		4.4 µM		3.07 µM		8.31 µM		> 10 µM		4.29 µM		3.2 µM		> 10 µM		> 10 µM
C=C1CC2(CC(c3ccccc3Cl)OC(c3ccccc3Cl)C2)OC1=O (configuration not stated)		4.68 µM		3.45 µM		8.56 µM		21.2 µM		9.03 µM		8.19 µM		19.2 µM		15.2 µM
COc1cccc(/C=C/C(=O)c2ccc(SC)cc2)c1OC	10.8 µM	23.8 µM	17.3 µM	36.4 µM			12.1 µM	25.5 µM	22.5 µM	49.5 µM	16.7 µM	34.7 µM			18.8 µM	35.6 µM
CC1(C)S[C@@H]2[C@H](N3C(=O)c4ccccc4C3=O)CN2[C@H]1NC(=O)N[C@@H]1N2C[C@@H](N3C(=O)c4ccccc4C3=O)[C@H]2SC1(C)C		> 100 µM		> 100 µM		> 100 µM		> 100 µM		> 100 µM		> 100 µM		> 100 µM		
COc1ccc(C=Nc2c(C(=O)Nc3cccc(Cl)c3C)sc3nc(C)c(C(=O)/C=C/c4ccc(OC)cc4)cc23)cc1	0.312 µM	> 23.1 µM	0.383 µM	2.26 µM		> 50 µM	1.61 µM	> 50 µM	4.12 µM	> 50 µM	0.599 µM	> 50 µM	0.362 µM	8.43 µM	2.24 µM	> 50 µM
O=C(CC1(O)C(=O)N(Cc2ccccc2)c2ccc(Cl)cc21)c1ccc(C(=O)NCC2CCC3(CC2)OOC2(CCCCC2)OO3)cc1 (configuration not stated)	6.26 µM	77.7 µM	0.327 µM	0.988 µM	2.45 µM	11.5 µM	0.215 µM	0.456 µM	0.181 µM	0.358 µM	0.209 µM	0.537 µM	0.57 µM	1.34 µM	0.306 µM	1.08 µM
O=C1C(Cl)=C(Nc2ccc(Nc3ccccc3)c(NC3=C(Cl)C(=O)c4ccccc4C3=O)c2)C(=O)c2ccccc21	3.46 µM	13.2 µM	1.27 µM	6.02 µM			8.25 µM	> 100 µM	2.62 µM	4.5 µM	2.5 µM	5.71 µM	3.79 µM	19.9 µM	11.4 µM	96.4 µM
Cc1ccc(Nc2nccc(N(C)c3ccc4c(C)n(C)nc4c3)n2)cc1S(N)(=O)=O			3.72 µM and 1.44 µM and 5.88 µM	> 100 µM	3.43 µM and 0.681 µM and 4.42 µM	> 100 µM	4.63 µM and 3.58 µM and 10 µM	> 100 µM	2.05 µM and 9.87 µM	> 10 µM and 77.3 µM		> 74.4 µM	3.57 µM and 2.78 µM and 9.92 µM	> 100 µM	3.22 µM and 4.11 µM and 15.2 µM	> 100 µM
CCCCOC(=O)c1ccc(N)cc1	17.9 µM	> 100 µM	> 100 µM	> 100 µM	> 100 µM	> 100 µM	32.3 µM	> 100 µM	92 µM	> 100 µM	> 100 µM	> 100 µM	19 µM	89.1 µM	39.7 µM	> 100 µM
CC1CCN(Cc2ccc(NC(=O)c3cc4ccc5cccnc5c4[nH]3)cc2)CC1	2.17 µM	4.54 µM	5.59 µM	23.2 µM	16.5 µM	> 100 µM			8.56 µM	23.2 µM	2.05 µM	3.72 µM	1.98 µM	4.45 µM		
O=S(=O)(CCN1CCOCC1)Nc1cc(-c2ccc3ncnc(Nc4ccc(F)c(Cl)c4)c3c2)cnc1Cl	0.153 µM	1.09 µM	1.09 µM	4.82 µM	1.66 µM	22.5 µM	1.62 µM	6.29 µM			0.115 µM	0.93 µM	0.624 µM	4.29 µM	0.282 µM	3.64 µM
COc1ccc(/C=C2\CN(C(=O)C(Cl)Cl)C/C(=C\c3ccc(OC)cc3)C2=O)cc1					2.32 µM	> 100 µM	2.57 µM	> 100 µM			1.92 µM	4.61 µM				

Structure (SMILES)	GI50 (UACC-62 melanoma)	TGI (UACC-62 melanoma)	GI50 (MDA-MB-231 breast)	TGI (MDA-MB-231 breast)	GI50 (OVCAR-4 ovarian)	TGI (OVCAR-4 ovarian)	GI50 (A549 NSCLC)	TGI (A549 NSCLC)	GI50 (TK-10 renal)	TGI (TK-10 renal)	GI50 (MALME-3M melanoma)	TGI (MALME-3M melanoma)	GI50 (SF-295 CNS)	TGI (SF-295 CNS)	GI50 (EKVX NSCLC)	TGI (EKVX NSCLC)
NC(=NCc1ccccc1)C(N=Nc1ccccc1)C(=O)NCc1ccccc1 (configuration not stated)	16.5 µM	37.6 µM	14.4 µM	35.2 µM	18.5 µM	45.1 µM	3.05 µM	10.1 µM			21.5 µM	48.2 µM	1.9 µM	5.16 µM	4.49 µM	23.5 µM
O=c1[nH]c2ccccc2c2nc3ccccc3n12		> 100 µM		> 100 µM		14 µM		> 100 µM		> 100 µM		72.7 µM		> 100 µM		> 100 µM
N#Cc1c(NCc2ccccc2)nc(NCc2ccccc2)c(C#N)c1-c1ccc(O)cc1	21.5 µM	> 100 µM	2.68 µM	33 µM	27.7 µM	> 100 µM	34.1 µM	> 100 µM	22.6 µM	69.4 µM	29.5 µM	68.5 µM	27.1 µM	> 100 µM	48.5 µM	> 100 µM
COC(=O)C1=C(O)[C@H](C(=O)OC)C2(O)C(C(=O)OC)[C@H](c3ccc(OC(=O)C(C)c4ccccc4)cc3)C[C@@H]1[C@@H]2C(=O)OC (some centres not stated)	16.9 µM	> 50 µM	19.5 µM	> 50 µM	21.5 µM	> 50 µM	19.4 µM	> 50 µM	48.6 µM	> 50 µM			16.1 µM	> 50 µM	32.5 µM	> 50 µM
O=C(Nc1ccc(Cc2ccccc2)cc1)Nc1nn(C(=O)Nc2ccc(Cc3ccccc3)cc2)c2ccccc12	41.6 µM	> 100 µM	47.1 µM	> 100 µM	> 100 µM	> 100 µM	> 100 µM	> 100 µM	> 100 µM	> 100 µM	> 100 µM	> 100 µM	> 100 µM	> 100 µM	> 100 µM	> 100 µM
COC(=O)c1ccc2c(c1)C(=O)c1c-2n(CCCCl)c(=O)c2cc([N+](=O)[O-])ccc12	27.5 µM	> 100 µM	> 100 µM	> 100 µM	> 100 µM	> 100 µM			> 100 µM	> 100 µM	> 100 µM	> 100 µM	52 µM	> 100 µM	> 100 µM	> 100 µM
C=C(CO)CC(O)c1cc(OC)ccc1OC (configuration not stated)		> 100 µM				> 100 µM		> 100 µM		> 100 µM		> 100 µM		> 100 µM		> 100 µM
Cc1c(O)c(N=Nc2nc3ccccc3s2)c2ccccc2c1O	15.3 µM	> 50 µM	26.5 µM	> 50 µM			19.8 µM	> 50 µM	> 50 µM	> 50 µM			24.7 µM	> 50 µM	13.3 µM	> 50 µM
COc1cc2c(c(OC)c1OC)-c1ccc(O)cc1[C@@H](NC(C)=O)CC2	0.0582 µM	> 100 µM	0.0689 µM	> 100 µM	0.0706 µM	> 100 µM	0.0666 µM	> 100 µM	0.0406 µM	> 100 µM			0.0341 µM	> 100 µM	0.0577 µM	> 100 µM
O=C1CSC(=S)N1c1ccco1				92.7 µM		> 100 µM		> 100 µM		> 100 µM		> 100 µM		> 100 µM		> 100 µM
CC(=O)Nc1cc2cc(N)ccc2oc1=O				> 100 µM		> 100 µM		> 100 µM		> 100 µM		> 100 µM		> 100 µM		> 100 µM
Oc1ccc(O)c(-c2cn3c(n2)SCC3)c1	11.2 µM	24.7 µM	11.7 µM	26.5 µM			47.5 µM	> 100 µM	21.3 µM	37.3 µM			14.8 µM	38.7 µM	19.5 µM	37.3 µM
Nc1c(C(=O)Nc2ccccc2)sc2nc3c(cc12)CCCCC3	0.41 µM	19.4 µM	1.62 µM	42 µM			0.696 µM	> 100 µM	2.39 µM	30.3 µM			0.366 µM	4.04 µM		
CCN1CCC(Nc2ccnc3cc(Cl)ccc23)CC1	19.2 µM	39.2 µM	19.7 µM	> 100 µM	55.7 µM	> 100 µM	33.9 µM	> 100 µM			20.7 µM	40.4 µM	18 µM	53.6 µM	35.2 µM	> 100 µM
CC(=O)/C(=C/c1ccccc1)C(=O)CC(C)C	6.54 µM	20.9 µM	18.2 µM	41.1 µM	17.6 µM	41.4 µM	26.5 µM	73.8 µM	23.9 µM	50.5 µM	16.7 µM	37.3 µM			17.3 µM	40.9 µM
COc1cc(C2CC(c3cccc(Nc4ccnc5cc(Cl)ccc45)c3)=NN2c2ccc(Cl)cc2)cc(OC)c1OC (configuration not stated)	0.311 µM	19.9 µM	2.97 µM	> 100 µM			2.72 µM	> 100 µM	3.27 µM	19.1 µM	21.9 µM	> 100 µM	1.71 µM	33.8 µM		
NCCc1ccc(S(=O)(=O)F)cc1					> 100 µM	> 100 µM	> 100 µM	> 100 µM	59.3 µM	> 100 µM	96.5 µM	> 100 µM	64.5 µM	> 100 µM	43.3 µM	> 100 µM
O=c1c2ccc(S(=O)(=O)c3ccc4c(=O)n5c6ccccc6nc5c5cccc3c45)c3cccc(c32)c2nc3ccccc3n12		> 100 µM		59.9 µM				> 100 µM		50.3 µM		> 100 µM		53.2 µM		> 100 µM
